The values below come from ChEMBL document CHEMBL3400036, “Novel 4-substituted-N,N-dimethyltetrahydronaphthalen-2-amines: synthesis, affinity, and in silico docking studies at serotonin 5-HT2-type and histamine H1 G protein-coupled receptors” (Bioorg Med Chem, 2015).

Common to all, as to format: cell-based
The target of assay [1] is 5-hydroxytryptamine receptor 2A (Homo sapiens, UniProt P28223). Briefly: Displacement of [3H]Ketanserin from human 5-HT2A receptor expressed in HEK293 cells by scintillation counting analysis.
In assay [2] the target is 5-hydroxytryptamine receptor 2B (Homo sapiens, UniProt P41595). Briefly: Displacement of [3H]Mesulergine from human 5-HT2B receptor expressed in HEK293 cells by scintillation counting analysis.
In assay [3] the target is T1, 5-hydroxytryptamine receptor 2C (Homo sapiens, UniProt P28335).
T1 sequence (P28335 whole entry): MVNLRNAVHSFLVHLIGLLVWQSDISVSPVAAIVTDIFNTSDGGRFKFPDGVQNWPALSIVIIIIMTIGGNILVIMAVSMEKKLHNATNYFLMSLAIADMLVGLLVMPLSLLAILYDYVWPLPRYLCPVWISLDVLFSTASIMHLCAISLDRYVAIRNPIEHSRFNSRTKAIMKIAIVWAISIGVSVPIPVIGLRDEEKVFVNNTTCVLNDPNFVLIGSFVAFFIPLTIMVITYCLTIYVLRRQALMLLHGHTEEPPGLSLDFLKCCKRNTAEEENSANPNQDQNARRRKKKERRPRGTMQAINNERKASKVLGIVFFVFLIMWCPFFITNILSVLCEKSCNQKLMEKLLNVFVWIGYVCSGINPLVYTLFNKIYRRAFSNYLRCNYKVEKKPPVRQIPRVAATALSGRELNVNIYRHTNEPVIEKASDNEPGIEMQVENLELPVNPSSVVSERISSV
The assay can be described thus: Displacement of [3H]Mesulergine from human 5-HT2C-INI receptor expressed in HEK293 cells by scintillation counting analysis.

Chain of 5-hydroxytryptamine receptor 2A (P28223 whole entry): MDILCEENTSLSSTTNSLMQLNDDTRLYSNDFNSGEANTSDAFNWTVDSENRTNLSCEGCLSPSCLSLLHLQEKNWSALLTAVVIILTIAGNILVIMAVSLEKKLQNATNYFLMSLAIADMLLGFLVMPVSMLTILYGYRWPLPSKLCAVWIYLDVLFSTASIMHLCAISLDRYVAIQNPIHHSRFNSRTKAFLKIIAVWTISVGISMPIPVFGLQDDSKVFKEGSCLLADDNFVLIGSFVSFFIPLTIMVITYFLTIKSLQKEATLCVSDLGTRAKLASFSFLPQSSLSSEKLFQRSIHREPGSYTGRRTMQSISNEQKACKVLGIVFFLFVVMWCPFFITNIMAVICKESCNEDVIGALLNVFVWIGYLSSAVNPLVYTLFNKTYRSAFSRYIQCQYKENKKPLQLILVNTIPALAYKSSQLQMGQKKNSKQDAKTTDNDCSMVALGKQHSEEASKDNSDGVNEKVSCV
Chain of 5-hydroxytryptamine receptor 2B (P41595 whole entry): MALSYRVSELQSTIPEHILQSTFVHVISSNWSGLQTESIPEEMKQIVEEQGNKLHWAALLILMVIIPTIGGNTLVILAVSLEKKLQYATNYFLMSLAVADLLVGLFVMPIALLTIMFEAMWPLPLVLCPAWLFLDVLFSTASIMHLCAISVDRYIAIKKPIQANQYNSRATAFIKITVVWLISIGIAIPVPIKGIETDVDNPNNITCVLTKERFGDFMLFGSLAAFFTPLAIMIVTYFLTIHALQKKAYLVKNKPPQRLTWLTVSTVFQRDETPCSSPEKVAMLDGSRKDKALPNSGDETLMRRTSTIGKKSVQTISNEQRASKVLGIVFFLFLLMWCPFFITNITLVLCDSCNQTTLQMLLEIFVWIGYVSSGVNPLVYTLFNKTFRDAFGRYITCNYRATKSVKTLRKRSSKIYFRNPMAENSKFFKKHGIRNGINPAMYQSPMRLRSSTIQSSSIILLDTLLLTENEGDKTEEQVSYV

For the compound `CN(C)[C@@H]1Cc2ccccc2[C@@H](c2ccccc2)C1`, the Ki turned out to be 100 nM in assay [1] and 94 nM in assay [2].
In assay [2], `CN(C)[C@H]1Cc2ccccc2[C@H](C2CCCCCCC2)C1` yielded a Ki of 40 nM.
Turning to `CN(C)[C@@H]1Cc2ccccc2[C@@H](C2CCCCC2)C1`, the Ki in assay [1] amounted to 20 nM; in assay [2], 20 nM; in assay [3], 7 nM.
With `CN(C)[C@H]1Cc2ccccc2[C@H](C2CCCCC2)C1`, the Ki in assay [1] came to 80 nM; in assay [2], 170 nM; in assay [3] it was 30 nM.
Consider `CN(C)[C@@H]1Cc2ccccc2[C@@H](c2ccccc2Br)C1`, for which the Ki in assay [1] was 1100 nM; in assay [2], 650 nM; in assay [3], 70 nM.
For the compound `CN(C)[C@H]1Cc2ccccc2[C@H](c2ccccc2Br)C1`, the figures for the Ki in assay [1], in assay [2] and in assay [3] were 760 nM, 4100 nM and 78 nM, respectively.
Regarding `CN(C)[C@H]1Cc2ccccc2[C@H](c2ccc(C(F)(F)F)cc2)C1`, in assay [2], affinity was put at a Ki of 250 nM.
Take `CN(C)[C@@H]1Cc2ccccc2[C@@H](c2ccc(Br)cc2)C1`: the Ki in assay [1] turned out to be 220 nM; in assay [2] it was 210 nM; in assay [3] it was 100 nM.
Regarding `CN(C)[C@H]1Cc2ccccc2[C@H](c2ccc(Br)cc2)C1`, the Ki was 60 nM in assay [1], 30 nM in assay [2] and 70 nM in assay [3].
The corresponding values for `CN(C)[C@@H]1Cc2ccccc2[C@@H](c2ccc(Cl)cc2)C1` are 250 nM, 300 nM and 120 nM.
With `CN(C)[C@H]1Cc2ccccc2[C@H](c2ccc(Cl)cc2)C1`, the figures for the inhibition constant Ki in assay [1], in assay [2] and in assay [3] were 50 nM, 80 nM and 55 nM, respectively.
For the compound `CN(C)[C@@H]1Cc2ccccc2[C@@H](c2ccc(F)cc2)C1`, the Ki in assay [1] turned out to be 140 nM; in assay [2], 400 nM; in assay [3], 68 nM.
As to `CN(C)[C@H]1Cc2ccccc2[C@H](c2ccc(F)cc2)C1`, the results for the Ki in assay [1], in assay [2] and in assay [3] were 71 nM, 66 nM and 75 nM, respectively.
As for `CN(C)[C@@H]1Cc2ccccc2[C@@H](c2cccc([N+](=O)[O-])c2)C1`, the results for the Ki in assay [1], in assay [2] and in assay [3] were 74 nM, 70 nM and 10 nM, respectively.
On to `CN(C)[C@H]1Cc2ccccc2[C@H](c2cccc([N+](=O)[O-])c2)C1`, for which the Ki was determined as 500 nM in assay [1], 20 nM in assay [2] and 120 nM in assay [3].
As for `CN(C)[C@@H]1Cc2ccccc2[C@@H](c2cccc(C(F)(F)F)c2)C1`, the Ki is 80 nM in assay [1], 60 nM in assay [2] and 10 nM in assay [3].
`CN(C)[C@H]1Cc2ccccc2[C@H](c2cccc(C(F)(F)F)c2)C1`: the Ki was determined as 1300 nM in assay [1], 200 nM in assay [2] and 230 nM in assay [3].
In the case of `CN(C)[C@@H]1Cc2ccccc2[C@@H](c2cccc(Br)c2)C1`, the Ki in assay [1] is 20 nM; in assay [2], 8 nM; in assay [3] it was 4 nM.
Regarding `CN(C)[C@H]1Cc2ccccc2[C@H](c2cccc(Br)c2)C1`, the Ki in assay [1] was 260 nM; in assay [2], 40 nM; in assay [3] it was 200 nM.
As to `CN(C)[C@@H]1Cc2ccccc2[C@@H](c2cccc(Cl)c2)C1`, the Ki stood at […] in assay [1], 30 nM in assay [2] and […] in assay [3].
In the case of `CN(C)[C@H]1Cc2ccccc2[C@H](c2cccc(Cl)c2)C1`, the values for the Ki in assay [1], in assay [2] and in assay [3] were […], 50 nM and […], respectively.
On to `CN(C)[C@@H]1Cc2ccccc2[C@@H](c2cccc(F)c2)C1`, for which the Ki worked out at 70 nM in assay [2] and 43 nM in assay [3].
With `CN(C)[C@H]1Cc2ccccc2[C@H](c2cccc(F)c2)C1`, the figures for the Ki in assay [2] and in assay [3] were 110 nM and 200 nM, respectively.
On to `CN(C)[C@H]1Cc2ccccc2[C@H](c2ccccc2)C1`, for which the inhibition constant (Ki) in assay [1] was 470 nM; in assay [2] it was 240 nM.
In the case of `CN(C)[C@@H]1Cc2ccccc2[C@@H](C2CCCCCCC2)C1`, the affinity in assay [2], expressed as Ki, was 10 nM.
Take `CN(C)[C@H]1Cc2ccccc2[C@H](c2cccc(-c3ccccc3)c2)C1`: the Ki was 200 nM in assay [2] and 1000 nM in assay [3].
For `CN(C)[C@@H]1Cc2ccccc2[C@@H](c2cccc(-c3ccccc3)c2)C1`, the figures for the Ki in assay [2] and in assay [3] were 73 nM and 5 nM, respectively.
In the case of `CN(C)[C@H]1Cc2ccccc2[C@H](c2ccccc2Cl)C1`, the Ki in assay [1] came to 2800 nM; in assay [2], 710 nM; in assay [3], 50 nM.
With `CN(C)[C@@H]1Cc2ccccc2[C@@H](c2ccccc2Cl)C1`, the values for the Ki in assay [1], in assay [2] and in assay [3] were 2400 nM, 300 nM and 290 nM, respectively.
`Cc1ccccc1[C@@H]1C[C@@H](N(C)C)Cc2ccccc21`: the Ki in assay [1] came to 700 nM; in assay [2] it was 6000 nM; in assay [3], 2000 nM.
As for `Cc1ccccc1[C@H]1C[C@H](N(C)C)Cc2ccccc21`, the Ki in assay [1] is 1000 nM; in assay [2] it was 800 nM; in assay [3], 1600 nM.
